In PMC5158083 (PLoS Pathogens, 2016):
Where “and” joins values, the source holds several entries; their conditions need not be identical. Equal entries are not always repeated. Non-standard residues stand in square brackets, D forms with d. Residues, ends and D or L forms follow the SMILES beside them. *: point of attachment. Sta = CC(C)C[C@H](N)[C@@H](O)CC(=O)O; Isovaleryl = CC(C)CC(=O)*

Key:
[1] = system: peptidase activity in DMEM conditioned media; test: Class-specific peptidase inhibitors on IQ substrate cleavage by DMEM conditioned media; assay type: biochemical, Cryptococcus neoformans; details: 1 mM 1-10-phenanthroline
Protocol: (§1) Although peptidase activity was evident under both culture conditions, differential substrate cleavage reflected differences in specificity. […] Adjustment of YNB supernatants from pH 5.0 to 7.4 (the pH of DMEM media) yielded only very low levels of any peptidase activity, while lowering the pH of DMEM supernatants from 7.4 to pH 5.0 produced a peptidase activity pattern similar to YNB media (S1 Fig).
(§2) Assays were conducted at room temperature on a Biotek Synergy H4 plate reader in a 50 μl volume using 96-well round bottom, polystyrene plates (Corning) with λex 328 nm λem 393 nm unless otherwise stated. Substrates were each 7 or 8 amino acids with 7-methoxycoumarin-4-acetic acid or 7-methoxycoumarin-4-yl-acetyl-L-lysine on the amino terminus, and at the carboxyl terminus 4-dinitrophenyl-L-lysine or 4-dinitrophenyl bound directly to the carboxyl terminus as indicated (For sequences see S1 Table). Substrates were assayed at a 10 μM final concentration from DMSO stocks. […]
(§3) Supplementary file ppat.1006051.s001.pdf: S1 Fig Fluorogenic assays indicate the endopeptidase class present in conditioned media and the optimal pH for detection of activity. […] The activity scale is differs for this experiment because this assay was conducted on a SpectraMax Gemini plate reader (Molecular Devices) although conditions were otherwise equivalent. […]

May1 = target: T1, May1 (Cryptococcus neoformans, UniProt J9VS02); test: May1 inhibition, fluorogenic IQ-2 assay (screen and IC50); assay type: biochemical; details: for IC50: 14.6 nM May1, 10 μM IQ-2, 100 mM MES 100 mM NaCl pH 4.5, 10 min preincubation, read-out: IC50 against May1
T1 construct: endogenous in cells; host or cells: wild-type C. neoformans H99, 32-hour YNB culture supernatant, enriched on HiTrap DEAE
T1 sequence (J9VS02 99-455 limits assumed): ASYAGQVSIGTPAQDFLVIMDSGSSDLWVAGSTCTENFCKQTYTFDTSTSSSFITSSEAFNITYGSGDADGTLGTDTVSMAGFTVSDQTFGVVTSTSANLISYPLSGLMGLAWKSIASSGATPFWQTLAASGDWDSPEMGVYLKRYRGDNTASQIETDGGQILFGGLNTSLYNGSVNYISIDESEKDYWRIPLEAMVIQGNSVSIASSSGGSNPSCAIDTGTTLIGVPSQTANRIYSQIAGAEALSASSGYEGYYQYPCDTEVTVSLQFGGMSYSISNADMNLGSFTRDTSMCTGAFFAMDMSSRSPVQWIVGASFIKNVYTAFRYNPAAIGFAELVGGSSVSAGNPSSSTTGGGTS
Protocol: Assays were conducted at room temperature on a Biotek Synergy H4 plate reader in a 50 μl volume using 96-well round bottom, polystyrene plates (Corning) with λex 328 nm λem 393 nm unless otherwise stated. Substrates were each 7 or 8 amino acids with 7-methoxycoumarin-4-acetic acid or 7-methoxycoumarin-4-yl-acetyl-L-lysine on the amino terminus, and at the carboxyl terminus 4-dinitrophenyl-L-lysine or 4-dinitrophenyl bound directly to the carboxyl terminus as indicated (For sequences see S1 Table). Substrates were assayed at a 10 μM final concentration from DMSO stocks. Biotek Gen5 software was used to calculate initial velocities in relative fluorescent units per second (RFU/sec) from 20 points over the linear portion of each assay. To assay activity, YNB conditioned media was adjusted to pH 4.5 using 100 mM MES, 100 mM NaCl buffer, […] at a final concentration of 26 mM MES, 26 mM NaCl, unless otherwise stated. Conditioned DMEM media was first buffer exchanged into PBS using a centrifugal filter unit with a 3 kDa cutoff (Millipore) before use. The peptidase inhibitors pepstatin A, 1-10-phenanthroline, AEBSF and E64 were dissolved in DMSO and were obtained from Sigma-Aldrich.
To concentrate secreted May1, YNB conditioned media was prepared as described above from 32-hour cultures of wild-type C. neoformans. The media was then diluted 2.7-fold into buffer A (50 mM Tris base pH 8), chosen to increase the pH in order to limit May1 autoproteolysis, dilute salts in the media (final conductivity ~6%), and confer a negative charge to the peptidase domain. The media was then loaded onto a 1 ml HiTrap DEAE fast flow column (GE Healthcare) using a fast protein liquid chromatography system with a flow rate of 1.5 ml/min. May1 was eluted using a 30 minute linear gradient of 0–100% buffer B (50 mM Tris base, 1 M NaCl, pH 8). Active fractions were determined by measuring activity using the substrate IQ-2. They were then combined and approximate May1 concentration determined by active-site titration.
Published methods were followed with minor modifications.
IC50 calculations were conducted using 14.6 nM May1 (100 mM MES 100 mM NaCl pH 4.5). Inhibitor stocks were dissolved in DMSO and incubated with May1 for 10 minutes before addition of substrate. GraphPad Prism 6 was used to calculate IC50 values from a plot of the log of inhibitor concentration versus normalized response.

may1Δ C. neoformans = test: Culture density of may1Δ strain in YNB treated with May1 inhibitors; assay type: cell-based, Cryptococcus neoformans; details: YNB cultures
Protocol: Average values and S.D. of triplicate measurements are shown. (B) Density at saturation (after 48 hours of growth) is shown for YNB cultures of wild type or may1Δ C. neoformans treated with May1 inhibitors. Average values and S.D. of triplicates are shown.

wild type C. neoformans = test: Culture density at saturation (OD600) of wild type C. neoformans in YNB treated with May1 inhibitors; assay type: cell-based, Cryptococcus neoformans; details: 2 μM pepstatin A
Protocol: Fig 5 May1 activity is required for wild-type growth at acidic pH. (A) Culture density was recorded over time by measuring OD600 of cultures grown in YNB. The average density and S.D. of triplicates are shown. (B) Culture density of wild-type C. neoformans grown in YNB containing 2 μM pepstatin A was recorded. Mock indicates DMSO treatment. The average and S.D. of cultures grown in triplicate are shown. (C) Mutant characterization assays were conducted using YNB agar plates. Cultures were adjusted to an OD600 of 5 and then spotted in 10-fold serial dilutions on plates. (D) Full rescue of may1Δ saturation density in YNB was observed after buffering to pH 6.5. Average density and S.D. of triplicates are shown.
Next, we selected the two best in vitro hits to test their potency in culture relative to pepstatin A by measuring inhibition of May1 and restriction of culture growth using fluorogenic assays and OD600 respectively. […] None of the three compounds affected the culture density of a may1Δ strain, consistent with the idea that May1 is the compounds’ relevant target in this context (S11 Fig). […] However, additional medicinal chemistry efforts are necessary for in vivo applications. Therefore, subsequent studies investigating the role of May1 in virulence were carried out using deletion strains of this enzyme. […]

[2] = system: peptidase activity in YNB conditioned media; test: Class-specific peptidase inhibitors on IQ substrate cleavage by YNB conditioned media; assay type: biochemical, Cryptococcus neoformans; details: 1 µM pepstatin
Protocol: as §1, §2, §3

SMILES	sensitivity of IQ substrate cleavage by DMEM conditioned media to inhibitor [1]	IC50 (May1)	reduction of May1 activity (May1; 1 μM inhibitor, substrate IQ-2)	inhibition of proteolysis of IQ-2 by enriched May1 (May1; May1 enriched from YNB conditioned media)	effect on culture density of may1Δ cells (may1Δ C. neoformans)	saturation density of wild type cultures in YNB (wild type C. neoformans)	sensitivity of IQ substrate cleavage by conditioned YNB media to inhibitor [2]
c1cnc2c(c1)ccc1cccnc12 [1-10-phenanthroline]	sensitive						
Cc1nc(COc2ccc(C[C@H](NC(=O)O[C@H]3CO[C@H]4OCC[C@H]43)[C@H](O)CN(CC(C)C)S(=O)(=O)c3ccc4c(c3)OCO4)cc2)cs1 [Brecanavir]		352 nM and ~352 nM	80%				
CC(C)CC(=O)N[C@H](C(=O)N[C@H](C(=O)N[C@@H](CC(C)C)[C@@H](O)CC(=O)N[C@@H](C)C(=O)N[C@@H](CC(C)C)[C@@H](O)CC(=O)O)C(C)C)C(C)C [Pepstatin A, pepstatin A] (Isovaleryl-VV[Sta]A[Sta]-OH)		1.4 nM		fully inhibited	no effect	saturation density defect equivalent to that observed for the MAY1 deletion strains	sensitive
